Experimental data as given in ChEMBL document CHEMBL1201862, “PubChem BioAssay data set” (2004).
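Results reflect a 48-hour exposure of cells in 96-well plates to compound at five concentrations. Abbreviation: GI50, concentration required for 50% inhibition of growth.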 Activity calls are given as the source filed them. No stated cut-off is given here; in the data, active = GI50 up to about 1.1 µM and inactive = higher.

Columns and labels:
Assay in all cases: growth of human tumour cells (NCI), 48 h
[1] = test system: OVCAR-4
[2] = test system: OVCAR-5
[3] = test system: UACC-257
[4] = test system: SF-295
[5] = test system: RXF 393
[6] = test system: MOLT-4
[7] = test system: HL-60
[8] = test system: HCT-15
[9] = test system: OVCAR-3
[10] = test system: NCI-H460
[11] = test system: TK-10
[12] = test system: SNB-78
[13] = test system: HCC 2998
[14] = test system: NCI-H226
[15] = test system: KM12
[16] = test system: IGROV-1
[17] = test system: HT-29
[18] = test system: SK-MEL-28
[19] = test system: EKVX
[20] = test system: Malme-3M
[21] = test system: SW-620
[22] = test system: HOP-62
[23] = test system: OVCAR-8
[24] = test system: SR
[25] = test system: LOX IMVI
[26] = test system: COLO 205
[27] = test system: A549
[28] = test system: NCI-H23
[29] = test system: DLD-1
[30] = test system: U-251
[31] = test system: LXFL 529
[32] = test system: CCRF-CEM
[33] = test system: M19-MEL
[34] = test system: A498
[35] = test system: UO-31
[36] = test system: RPMI-8226
[37] = test system: SN12C
[38] = test system: SK-MEL-5
[39] = test system: HCT-116
[40] = test system: 786-0
[41] = test system: ACHN
[42] = test system: KM-20L2
[43] = test system: K562
[44] = test system: XF498
[45] = test system: SF-268
[46] = test system: SNB-19
[47] = test system: DMS-114
[48] = test system: NCI-H522
[49] = test system: UACC-62
[50] = test system: SK-OV-3
[51] = test system: HOP-92
[52] = test system: SF-539
[53] = test system: M14
[54] = test system: SNB-75
[55] = test system: SK-MEL-2

SMILES: NC(=O)N1N=C2c3ccccc3SC[C@H]2[C@@H]1c1ccccc1
- GI50 [1]: 26.9 µM (inactive)
- GI50 [2]: 21.3 µM (inactive)
- GI50 [3]: 18.4 µM (inactive)
- GI50 [4]: 25.1 µM (inactive)
- GI50 [5]: 2.26 µM (inactive)
- GI50 [6]: 23.7 µM (inactive)
- GI50 [7]: 21.3 µM (inactive)
- GI50 [8]: 23.9 µM
- GI50 [9]: 16.9 µM (inactive)
- GI50 [10]: 19.1 µM (inactive)
- GI50 [11]: 32.1 µM (inactive)
- GI50 [12]: 33.5 µM (inactive)
- GI50 [13]: 26.9 µM (inactive)
- GI50 [14]: 22.2 µM (inactive)
- GI50 [15]: > 10 µM (inactive)
- GI50 [16]: 26.6 µM (inactive)
- GI50 [17]: 19.7 µM (inactive)
- GI50 [18]: 21.8 µM (inactive)
- GI50 [19]: 35 µM (inactive)
- GI50 [20]: 26.9 µM (inactive)
- GI50 [21]: 33.7 µM (inactive)
- GI50 [22]: 25.6 µM (inactive)
- GI50 [23]: 24 µM (inactive)
- GI50 [24]: 30 µM (inactive)
- GI50 [25]: 17.5 µM (inactive)
- GI50 [26]: 20.7 µM (inactive)
- GI50 [27]: 37.3 µM (inactive)
- GI50 [28]: 35.6 µM (inactive)
- GI50 [29]: 21.4 µM (inactive)
- GI50 [30]: 22.1 µM (inactive)
- GI50 [31]: 26.5 µM (inactive)
- GI50 [32]: 23.1 µM (inactive)
- GI50 [33]: 34.6 µM (inactive)
- GI50 [34]: 35.1 µM (inactive)
- GI50 [35]: 23.9 µM (inactive)
- GI50 [36]: 33.4 µM (inactive)
- GI50 [37]: 33.8 µM (inactive)
- GI50 [38]: 8.07 µM (inactive)
- GI50 [39]: 13.5 µM (inactive)
- GI50 [40]: 29 µM (inactive)
- GI50 [41]: 33.3 µM (inactive)
- GI50 [42]: 20.2 µM (inactive)
- GI50 [43]: 24.2 µM (inactive)
- GI50 [44]: 22 µM (inactive)
- GI50 [45]: 33.3 µM (inactive)
- GI50 [46]: 34.5 µM (inactive)
- GI50 [47]: 23.7 µM (inactive)
- GI50 [48]: > 10 µM (inactive)

SMILES: CC(C)=CCC/C(=C/CC/C(C)=C/CCc1ccoc1)C(=O)O
- GI50 [1]: > 100 µM (inactive)
- GI50 [49]: > 100 µM (inactive)
- GI50 [2]: 26.5 µM (inactive)
- GI50 [3]: > 100 µM (inactive)
- GI50 [50]: > 100 µM (inactive)
- GI50 [4]: > 100 µM (inactive)
- GI50 [5]: > 100 µM (inactive)
- GI50 [6]: > 100 µM (inactive)
- GI50 [8]: > 100 µM
- GI50 [9]: > 100 µM (inactive)
- GI50 [10]: > 100 µM (inactive)
- GI50 [51]: > 100 µM (inactive)
- GI50 [12]: > 100 µM (inactive)
- GI50 [13]: > 100 µM (inactive)
- GI50 [14]: 73.5 µM (inactive)
- GI50 [15]: > 100 µM (inactive)
- GI50 [52]: > 100 µM (inactive)
- GI50 [17]: > 100 µM (inactive)
- GI50 [18]: > 100 µM (inactive)
- GI50 [19]: > 100 µM (inactive)
- GI50 [20]: > 100 µM (inactive)
- GI50 [21]: > 100 µM (inactive)
- GI50 [22]: > 100 µM (inactive)
- GI50 [23]: > 100 µM (inactive)
- GI50 [25]: > 100 µM (inactive)
- GI50 [53]: > 100 µM (inactive)
- GI50 [26]: > 100 µM (inactive)
- GI50 [27]: > 100 µM (inactive)
- GI50 [28]: > 100 µM (inactive)
- GI50 [29]: 84.5 µM (inactive)
- GI50 [30]: > 100 µM (inactive)
- GI50 [31]: > 100 µM (inactive)
- GI50 [32]: > 100 µM (inactive)
- GI50 [33]: > 100 µM (inactive)
- GI50 [34]: > 100 µM (inactive)
- GI50 [35]: > 100 µM (inactive)
- GI50 [37]: > 100 µM (inactive)
- GI50 [38]: > 100 µM (inactive)
- GI50 [39]: > 100 µM (inactive)
- GI50 [40]: > 100 µM (inactive)
- GI50 [41]: > 100 µM (inactive)
- GI50 [42]: > 100 µM (inactive)
- GI50 [43]: > 100 µM (inactive)
- GI50 [54]: > 100 µM (inactive)
- GI50 [55]: > 100 µM (inactive)
- GI50 [44]: > 100 µM (inactive)
- GI50 [45]: > 100 µM (inactive)
- GI50 [46]: > 100 µM (inactive)
- GI50 [47]: > 100 µM (inactive)
- GI50 [48]: > 100 µM (inactive)
